In publication PMC5004178, “A novel inhibitory effect of oxazol-5-one compounds on ROCKII signaling in human coronary artery vascular smooth muscle cells” (Scientific Reports, 2016):

Molecular target: T1, ROCKII (Homo sapiens, UniProt O75116)
T1 construct: gene ROCK2; ROCKII(5–554), constitutively active recombinant
Test: […]-phosphoryl transfer kinase assay with LC20 peptide; steady-state kinetics
Format: biochemical

T1 sequence (O75116 5-554): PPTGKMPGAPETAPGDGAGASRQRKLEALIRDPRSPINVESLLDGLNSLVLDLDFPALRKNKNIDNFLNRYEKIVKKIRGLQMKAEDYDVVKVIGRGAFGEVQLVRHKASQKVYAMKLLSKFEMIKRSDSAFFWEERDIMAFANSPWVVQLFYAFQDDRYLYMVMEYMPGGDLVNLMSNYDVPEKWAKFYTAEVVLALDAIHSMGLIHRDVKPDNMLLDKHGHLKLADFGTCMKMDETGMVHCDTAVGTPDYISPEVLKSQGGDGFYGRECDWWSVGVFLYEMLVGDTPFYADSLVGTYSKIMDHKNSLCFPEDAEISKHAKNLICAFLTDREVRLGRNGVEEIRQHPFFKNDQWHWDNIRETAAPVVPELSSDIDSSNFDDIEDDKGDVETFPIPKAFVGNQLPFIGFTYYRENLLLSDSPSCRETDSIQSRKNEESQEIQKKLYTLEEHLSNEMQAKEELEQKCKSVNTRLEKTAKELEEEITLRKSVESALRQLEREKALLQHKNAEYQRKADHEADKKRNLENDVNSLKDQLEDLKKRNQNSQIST

O=C1OC(c2ccc(Cl)c([N+](=O)[O-])c2)=N/C1=C\c1cccnc1 [DI, (4Z)-2-(4-chloro-3-nitrophenyl)-4-(pyridin-3-ylmethylidene)-1,3-oxazol-5-one]
Ki: 132 nM
